Source: ChEMBL document CHEMBL1909046, “DrugMatrix in vitro pharmacology data”

Legend:
[1] = DRUGMATRIX: Sigma2 radioligand binding (ligand: [3H] Ifenprodil); format: cell membranes, Rattus norvegicus, Wistar, Brain, Membrane; conditions: Not Active = under 50% inhibition at 10 µM
Interstitial collagenase = target: T1, Interstitial collagenase (Homo sapiens, UniProt P03956); experiment: biochemical; format: tissue-based, Rheumatoid synovial fibroblasts;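 note: MMP-1 enzyme inhibition assay using a peptide substrate; in other assays of this panel Not Active means under 50% inhibition at 10 µM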
T1 sequence (P03956 whole entry): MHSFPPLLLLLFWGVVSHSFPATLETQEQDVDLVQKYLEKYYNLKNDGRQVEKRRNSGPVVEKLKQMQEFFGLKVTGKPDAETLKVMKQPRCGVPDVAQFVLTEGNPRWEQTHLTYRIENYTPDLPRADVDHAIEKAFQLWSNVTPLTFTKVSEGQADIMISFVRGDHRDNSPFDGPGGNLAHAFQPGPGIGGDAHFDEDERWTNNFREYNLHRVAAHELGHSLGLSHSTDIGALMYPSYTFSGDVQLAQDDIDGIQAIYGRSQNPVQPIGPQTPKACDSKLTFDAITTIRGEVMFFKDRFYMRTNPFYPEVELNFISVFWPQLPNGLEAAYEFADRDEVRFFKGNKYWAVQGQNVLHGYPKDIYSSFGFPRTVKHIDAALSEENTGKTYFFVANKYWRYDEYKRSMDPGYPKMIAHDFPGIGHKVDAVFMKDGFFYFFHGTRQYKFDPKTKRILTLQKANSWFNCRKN

Acetylcholinesterase = Acetylcholinesterase (Homo sapiens, UniProt P22303); experiment: DRUGMATRIX: Acetylcholinesterase enzyme inhibition (substrate: acetylthiocholine); format: cell-based, HEK293; conditions: hek293; Not Active = under 50% inhibition at 10 µM
[2] = target: T2, C-C chemokine receptor type 4 (Homo sapiens, UniProt P51679); format: cell membranes, Chem-1, Membrane; conditions: chem-1; note: in other assays of this panel Not Active means under 50% inhibition at 10 µM
T2 sequence (P51679 whole entry): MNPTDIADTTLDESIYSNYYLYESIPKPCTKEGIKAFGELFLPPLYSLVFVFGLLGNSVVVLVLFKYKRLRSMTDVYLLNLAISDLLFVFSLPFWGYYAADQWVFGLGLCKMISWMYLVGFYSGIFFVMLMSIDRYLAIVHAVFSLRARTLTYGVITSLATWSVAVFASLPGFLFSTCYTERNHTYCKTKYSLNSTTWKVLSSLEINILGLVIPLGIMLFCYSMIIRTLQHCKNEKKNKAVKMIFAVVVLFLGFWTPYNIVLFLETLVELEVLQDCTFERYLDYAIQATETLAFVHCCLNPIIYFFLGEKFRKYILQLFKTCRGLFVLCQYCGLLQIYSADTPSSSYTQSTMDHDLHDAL

[3] = DRUGMATRIX: Potassium Channel [KATP] radioligand binding (ligand: [3H] Glyburide); format: cell membranes, Membrane; conditions: hit-t15; Not Active = under 50% inhibition at 10 µM
[4] = target: Mitogen-activated protein kinase 3 (Homo sapiens, UniProt P27361); experiment: DRUGMATRIX: Protein Serine/Threonine Kinase, ERK1 enzyme inhibition (substrate: Myelin Basic Protein); parameters: species or system Escherichia coli; conditions: Not Active = under 50% inhibition at 10 µM
Neutrophil elastase = target: T3, Neutrophil elastase (Homo sapiens, UniProt P08246); format: tissue-based;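 note: inhibition of neutrophil elastase enzyme activity, measured with a p-nitroanilide-linked peptide substrate; in other assays of this panel Not Active means under 50% inhibition at 10 µM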
T3 sequence (P08246 whole entry): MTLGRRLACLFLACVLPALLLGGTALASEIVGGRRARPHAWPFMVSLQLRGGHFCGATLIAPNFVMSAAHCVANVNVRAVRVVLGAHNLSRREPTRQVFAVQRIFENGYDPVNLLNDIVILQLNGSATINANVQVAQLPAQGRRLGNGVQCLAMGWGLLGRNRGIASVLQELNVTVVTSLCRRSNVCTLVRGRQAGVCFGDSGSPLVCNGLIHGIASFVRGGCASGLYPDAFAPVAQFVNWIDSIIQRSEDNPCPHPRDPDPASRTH

Sequence of Acetylcholinesterase (P22303 whole entry): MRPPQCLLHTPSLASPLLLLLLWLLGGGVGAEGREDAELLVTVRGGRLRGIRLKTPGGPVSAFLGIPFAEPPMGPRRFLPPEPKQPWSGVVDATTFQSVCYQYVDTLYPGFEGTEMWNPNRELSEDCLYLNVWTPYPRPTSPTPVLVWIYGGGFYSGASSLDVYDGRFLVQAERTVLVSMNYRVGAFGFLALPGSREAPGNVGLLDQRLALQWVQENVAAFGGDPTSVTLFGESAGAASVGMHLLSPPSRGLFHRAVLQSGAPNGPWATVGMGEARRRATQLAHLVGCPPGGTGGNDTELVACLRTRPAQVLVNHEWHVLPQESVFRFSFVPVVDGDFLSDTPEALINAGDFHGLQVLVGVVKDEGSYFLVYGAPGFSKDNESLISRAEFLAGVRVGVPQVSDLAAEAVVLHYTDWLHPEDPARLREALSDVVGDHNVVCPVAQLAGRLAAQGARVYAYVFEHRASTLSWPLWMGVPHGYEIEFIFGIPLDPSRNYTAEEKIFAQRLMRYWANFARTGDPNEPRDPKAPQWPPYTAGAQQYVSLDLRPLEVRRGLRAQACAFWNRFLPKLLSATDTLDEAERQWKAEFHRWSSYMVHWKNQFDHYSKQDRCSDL
Sequence of Mitogen-activated protein kinase 3 (P27361 whole entry): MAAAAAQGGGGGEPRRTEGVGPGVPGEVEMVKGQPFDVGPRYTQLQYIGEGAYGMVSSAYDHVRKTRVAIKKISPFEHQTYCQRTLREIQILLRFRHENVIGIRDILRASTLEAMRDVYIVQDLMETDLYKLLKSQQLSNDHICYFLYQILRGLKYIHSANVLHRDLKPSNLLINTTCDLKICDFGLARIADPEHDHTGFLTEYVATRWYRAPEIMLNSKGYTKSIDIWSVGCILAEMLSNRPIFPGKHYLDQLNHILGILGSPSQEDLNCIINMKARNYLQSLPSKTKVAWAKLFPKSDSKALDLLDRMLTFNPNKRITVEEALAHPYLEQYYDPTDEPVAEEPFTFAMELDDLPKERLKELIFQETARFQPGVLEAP

N#CC(C#N)=Cc1ccc(O)c(O)c1 [TYRPHOSTIN 23]
Not Active: IC50 [1] | Ki [1] | IC50 (Interstitial collagenase) | IC50 (Acetylcholinesterase) | IC50 [2] | IC50 [3] | Ki [3] | IC50 [4] | IC50 (Neutrophil elastase)
